“And” between values parts separate entries of the source, which are not always exact repeats. Identical values can stand only once.
Molecular target: TSPO (Homo sapiens, UniProt P30536)
Assay: PET, kinetic compartment analysis (1TCM, 2TCM) with metabolite-corrected arterial input function
Details: for BPND (k3/k4) Mean: mean of test and retest; for BPND (k3/k4) Retest / BPND (k3/k4) Test / VT (2TCM): mean(SD); for BPND (k3/k4) Retest / BPND (k3/k4) Test: 6 subjects; for ICC: BPND test-retest
Procedure: Each subject was placed recumbent with the head in the PET system. A head fixation system with an individual plaster helmet was used. A cannula was inserted into the left radial artery and another into the right antecubital vein. A sterile phosphate buffer (pH = 7.4) containing radioligand was injected as a bolus over 2 s into the cubital vein. The cannula was then immediately flushed with a 10-mL saline solution. In each individual, the measurement was repeated after approximately 6 weeks.
The PET system used was ECAT Exact HR 47 (Siemens/CTI, Knoxville, TN, USA), with an in-plane and an axial resolution of 3.6 and 4.0 mm, respectively, full width at half maximum (FWHM). The radioactivity in the brain was measured continuously for 60 min using a pre-programmed sequence of […] (20 s × 9, 30 s × 6, 180 s × 5, 300 s × 5). […] The images were reconstructed with a Hanning filter (FWHM = 2 mm) in a matrix of 128 × 128 × 47 voxels, yielding a voxel size of 2.03 × 2.03 × 3.125 mm. Attenuation correction was done using transmission scan data obtained for each subject.
[^11C](R)-PK11195 binding to TSPO was quantified using kinetic compartment analyses with the metabolite-corrected arterial plasma curve as input function. Two compartment models (one- and two-tissue) were used to fit the model to the TACs. The fractional volume of blood present in the tissue volume and bolus time were estimated for each individual, each occasion, by fitting the whole brain TAC with a two-tissue compartment model.
The one-tissue compartment model (1TCM) describes one compartment which is a composite of free, non-specifically and specifically bound radioligands. The two rate constants, K1 and k2, describe the influx and efflux rates across the blood-brain barrier, respectively.
The two-tissue compartment model (2TCM) has been described in detail in the literature. The two-tissue compartments are defined as the radioactivity concentration of a nondisplaceable radioligand in the brain (CND) and the radioactivity concentration of a radioligand specifically bound to receptors (CB). In this model, four rate constants (K1, k2, k3 and k4) explain the time curves for radioligand in the brain. In short, the four rate constants were determined by curve fitting with a weighted non-linear least squares fitting technique with constraint-restricting parameters between 0 and 0.9. Each initial value for K1, k2, k3 and k4 was 0.5, 0.1, 0.5 and 0.5, respectively. The local minimum of the sum of the squared residuals was determined by iteration.
Regional [^11C](R)-PK11195 binding was expressed using the concept of the total distribution volume (VT), which is defined by the following equation, using kinetic constants obtained from 2TCM [16, 20, 21].
Specific [^11C](R)-PK11195 binding was expressed as binding potential relative to nondisplaceable binding (BPND) as follows:
The fractional volume of blood present in the tissue volume was determined for each individual, each occasion. It was obtained by fitting whole brain TAC with a 2TCM with six parameters (K1, k2, k3, k4, fractional blood volume (VB) and time shift between plasma input function and PET TAC (tbolus)) and parameters VB and tbolus subsequently applied for each brain region.
The reproducibility of two successive PET measurements was analysed by means of descriptive statistics (mean, range, SD, coefficient of variance (CV), difference in measurement (error in percent) and intra-class correlation coefficient (ICC)). The ICC was calculated from the between-subject and within-subject variations, using the expression: […]

[1] = brainstem, BPND test-retest difference in measurements
[2] = brainstem, VT (2TCM) test-retest
[3] = caudate (L), BPND test-retest difference in measurements
[4] = caudate (R), BPND test-retest difference in measurements
[5] = cerebellum, BPND test-retest difference in measurements
[6] = cerebellum, VT (2TCM) test-retest
[7] = grey matter, cortex, BPND test-retest difference in measurements
[8] = grey matter, 1TCM, retest (2), individual subjects 1-6
[9] = grey matter, 1TCM, test (1), individual subjects 1-6
[10] = grey matter, 1TCM, test (1), mean(SD/CV) of 6 subjects
[11] = grey matter, 2TCM, retest (2), individual subjects 1-6
[12] = grey matter, 2TCM, retest (2), mean(SD/CV) of 6 subjects
[13] = grey matter, 2TCM, test (1), individual subjects 1-6
[14] = grey matter, 2TCM, test (1), mean(SD/CV) of 6 subjects
[15] = grey matter, VT (2TCM) test-retest
[16] = putamen (L), BPND test-retest difference in measurements

Chain of TSPO (P30536 whole entry): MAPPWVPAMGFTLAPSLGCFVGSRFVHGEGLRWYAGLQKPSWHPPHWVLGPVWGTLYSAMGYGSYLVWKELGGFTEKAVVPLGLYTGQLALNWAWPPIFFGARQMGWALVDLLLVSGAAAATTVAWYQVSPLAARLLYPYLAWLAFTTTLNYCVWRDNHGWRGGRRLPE

CC[C@@H](C)N([11CH3])C(=O)c1cc2ccccc2c(-c2ccccc2Cl)n1 [[^11C](R)-PK11195]
influx rate constant K1 (2TCM, range): 0.05 to 0.09
BPND throughout the human brain, range (2TCM, regional means): 1.11 to 2.21
BPND (k3/k4) Mean (brainstem, 2TCM): 2.09
BPND (k3/k4) Retest (brainstem, 2TCM): 2.18(0.33)
BPND (k3/k4) Test (brainstem, 2TCM): 2.00(0.35)
ICC (brainstem): -0.6
Error % mean(SD) [1]: -13(31) %
Error range (%) [1]: -45 to 26%
Error % mean(SD) [2]: -13(10) %
Error range (%) [2]: -29 to -1%
VT (2TCM) (brainstem, retest): 0.74 (0.16)
VT (2TCM) (brainstem, test): 0.86(0.18)
BPND (k3/k4) Mean (caudate (L), 2TCM): 1.68
BPND (k3/k4) Retest (caudate (L), 2TCM): 1.84(0.93)
BPND (k3/k4) Test (caudate (L), 2TCM): 1.52(0.43)
ICC (caudate (L)): -0.05
Error % mean(SD) [3]: -27(66) %
Error range (%) [3]: -133 to 42%
BPND (k3/k4) Mean (caudate (R), 2TCM): 1.77
BPND (k3/k4) Retest (caudate (R), 2TCM): 2.21(1.19)
BPND (k3/k4) Test (caudate (R), 2TCM): 1.33(0.68)
ICC (caudate (R)): 0.01
Error % mean(SD) [4]: -96(126) %
Error range (%) [4]: -288 to12%
BPND (k3/k4) Mean (caudate, 2TCM): 1.65
BPND (k3/k4) Retest (caudate, 2TCM): 1.92(0.87)
BPND (k3/k4) Test (caudate, 2TCM): 1.37(0.55)
ICC (caudate): 0.01
Error range (%) (caudate, BPND test-retest difference in measurements): -155 to 30%
Error % mean(SD) (caudate, VT (2TCM) test-retest): 25(36) %
Error range (%) (caudate, VT (2TCM) test-retest): -35 to 62%
VT (2TCM) (caudate, retest): 1.06 (0.24)
VT (2TCM) (caudate, test): 0.88(0.13)
BPND (k3/k4) Mean (cerebellum, 2TCM): 1.33
BPND (k3/k4) Retest (cerebellum, 2TCM): 1.37(0.24)
BPND (k3/k4) Test (cerebellum, 2TCM): 1.29(0.19)
ICC (cerebellum): 0.07
Error % mean(SD) [5]: -8% and -8(20) %
Error range (%) [5]: -21 to 32%
Error % mean(SD) [6]: -1(18) %
Error range (%) [6]: -32 to 24%
VT (2TCM) (cerebellum, retest): 0.72 (0.16)
VT (2TCM) (cerebellum, test): 0.74(0.18)
BPND (k3/k4) Mean (grey matter, cortex, 2TCM): 1.55
BPND (k3/k4) Retest (grey matter, cortex, 2TCM): 1.59(0.29)
BPND (k3/k4) Test (grey matter, cortex, 2TCM): 1.50(0.27)
ICC (grey matter, cortex): 0.47
Error % mean(SD) [7]: 5% and 5(18) %
Error range (%) [7]: -24 to 25%
K1 [8]: 0.094 mL/cc/min and 0.035 mL/cc/min and 0.044 mL/cc/min and 0.045 mL/cc/min and 0.056 mL/cc/min and 0.057 mL/cc/min
k2 [8]: 0.111 min⁻¹ and 0.086 min⁻¹ and 0.108 min⁻¹ and 0.091 min⁻¹ and 0.099 min⁻¹ and 0.118 min⁻¹
k2 (grey matter, 1TCM, retest (2), mean(SD/CV) of 6 subjects): 0.102(0.012/12) min^-1
K1 [9]: 0.062 mL/cc/min and 0.037 mL/cc/min and 0.042 mL/cc/min and 0.074 mL/cc/min and 0.054 mL/cc/min
k2 [9]: 0.086 min⁻¹ and 0.087 min⁻¹ and 0.111 min⁻¹ and 0.106 min⁻¹ and 0.116 min⁻¹ and 0.096 min⁻¹
K1 [10]: 0.055(0.014/25) mL/cc/min
k2 [10]: 0.100(0.012/12) min^-1
K1 [11]: 0.077 mL/cc/min and 0.129 mL/cc/min and 0.049 mL/cc/min and 0.067 mL/cc/min and 0.060 mL/cc/min and 0.073 mL/cc/min
k2 [11]: 0.287 min⁻¹ and 0.318 min⁻¹ and 0.246 min⁻¹ and 0.340 min⁻¹ and 0.239 min⁻¹ and 0.234 min⁻¹
k3 [11]: 0.059 min⁻¹ and 0.111 min⁻¹ and 0.062 min⁻¹ and 0.068 min⁻¹ and 0.065 min⁻¹
k4 [11]: 0.041 min⁻¹ and 0.076 min⁻¹ and 0.035 min⁻¹ and 0.032 min⁻¹ and 0.045 min⁻¹ and 0.044 min⁻¹
K1 [12]: 0.076 (0.028/37) mL/cc/min
k2 [12]: 0.277(0.045/16) min^-1
k3 [12]: 0.071(0.02/28) min^-1
k4 [12]: 0.046(0.016/34) min^-1
K1 [13]: 0.082 mL/cc/min and 0.048 mL/cc/min and 0.054 mL/cc/min and 0.094 mL/cc/min and 0.072 mL/cc/min
k2 [13]: 0.220 min⁻¹ and 0.245 min⁻¹ and 0.221 min⁻¹ and 0.264 min⁻¹ and 0.252 min⁻¹
k3 [13]: 0.061 min⁻¹ and 0.055 min⁻¹ and 0.040 min⁻¹ and 0.038 min⁻¹ and 0.076 min⁻¹ and 0.058 min⁻¹
k4 [13]: 0.033 min⁻¹ and 0.038 min⁻¹ and 0.023 min⁻¹ and 0.029 min⁻¹ and 0.067 min⁻¹ and 0.026 min⁻¹
K1 [14]: 0.072(0.018/25) mL/cc/min
k2 [14]: 0.237(0.019/8) min^-1
k3 [14]: 0.055(0.014/25) min^-1
Error % mean(SD) [15]: -6(17) %
Error range (%) [15]: -36 to 15%
VT (2TCM) (grey matter, retest): 0.70 (0.17)
VT (2TCM) (grey matter, test): 0.76(0.18)
BPND (k3/k4) Mean (putamen (L), 2TCM): 1.44
BPND (k3/k4) Retest (putamen (L), 2TCM): 1.60(0.67)
BPND (k3/k4) Test (putamen (L), 2TCM): 1.28(0.31)
ICC (putamen (L)): 0.02
Error % mean(SD) [16]: -30(59) %
Error range (%) [16]: -145 to 23%

Source: publication PMC3350394, “Kinetic analysis and test-retest variability of the radioligand [^11C](R)-PK11195 binding to TSPO in the human brain - a PET study in control subjects” (EJNMMI Research, 2012)
